One assay has as its target HDAC-1 (Homo sapiens, UniProt Q13547). In words: HDAC inhibitory activity assay with HDAC-1 (fluorophore/quencher peptide substrate). Particulars: enzyme/compound mix incubated at room temperature for 2 hours; reaction about 45 minutes; fluorescence read. The assay is classed as biochemical. How it is done:
(§1) HDAC inhibitory activity of the compound of Example 1 was measured by an assay in which HDAC-1 or -3 were used as a target molecule. The test compound was suspended in and titrated in DMSO. It was then spotted into a 384-well test plate. The enzyme, HDAC-1 or -3, was diluted in assay buffer containing 25 mM Tris-HCl (pH 8.0), 137 mM NaCl, 2.7 mM KCl, and 0.01% Tween-20 and added to the pre-spotted compound. The enzyme/compound mix was incubated at room temperature for 2 hours. The peptide substrate containing a fluorophore/quencher pair was diluted in the same assay buffer and added to the compound/enzyme mix initiating the reaction. The reaction incubated at room temperature for about 45 minutes. A concentrated developer solution was diluted in the assay buffer, and added to the reaction. The reaction was incubated at room temperature for about 15 minutes and relative fluorescence was read on an instrument reader.

A further assay deals with HDAC-3 (Homo sapiens, UniProt O15379). The assay is described as follows: HDAC inhibitory activity assay with HDAC-3 (fluorophore/quencher peptide substrate). The assay is classed as biochemical. As to conditions: enzyme/compound mix incubated at room temperature for 2 hours; reaction about 45 minutes; fluorescence read. The protocol: as §1
Chain of HDAC-3 (O15379 whole entry, species assumed): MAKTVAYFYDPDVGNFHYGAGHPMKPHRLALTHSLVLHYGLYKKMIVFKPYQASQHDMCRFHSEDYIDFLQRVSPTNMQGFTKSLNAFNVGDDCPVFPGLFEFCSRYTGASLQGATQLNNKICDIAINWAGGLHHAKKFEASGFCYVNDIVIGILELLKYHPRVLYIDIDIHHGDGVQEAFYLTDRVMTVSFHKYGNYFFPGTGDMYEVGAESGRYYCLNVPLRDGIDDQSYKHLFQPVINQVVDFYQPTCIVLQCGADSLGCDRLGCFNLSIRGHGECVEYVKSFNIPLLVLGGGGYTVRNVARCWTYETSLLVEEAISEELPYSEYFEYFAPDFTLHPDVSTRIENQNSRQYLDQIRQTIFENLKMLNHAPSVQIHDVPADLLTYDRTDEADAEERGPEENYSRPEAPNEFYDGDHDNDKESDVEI
Chain of HDAC-3 (Q9Y618 395-489 partner limits assumed, species assumed): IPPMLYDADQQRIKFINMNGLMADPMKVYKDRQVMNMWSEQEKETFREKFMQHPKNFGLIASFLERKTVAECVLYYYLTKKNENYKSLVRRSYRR

Chain of HDAC-1 (Q13547 whole entry, species assumed): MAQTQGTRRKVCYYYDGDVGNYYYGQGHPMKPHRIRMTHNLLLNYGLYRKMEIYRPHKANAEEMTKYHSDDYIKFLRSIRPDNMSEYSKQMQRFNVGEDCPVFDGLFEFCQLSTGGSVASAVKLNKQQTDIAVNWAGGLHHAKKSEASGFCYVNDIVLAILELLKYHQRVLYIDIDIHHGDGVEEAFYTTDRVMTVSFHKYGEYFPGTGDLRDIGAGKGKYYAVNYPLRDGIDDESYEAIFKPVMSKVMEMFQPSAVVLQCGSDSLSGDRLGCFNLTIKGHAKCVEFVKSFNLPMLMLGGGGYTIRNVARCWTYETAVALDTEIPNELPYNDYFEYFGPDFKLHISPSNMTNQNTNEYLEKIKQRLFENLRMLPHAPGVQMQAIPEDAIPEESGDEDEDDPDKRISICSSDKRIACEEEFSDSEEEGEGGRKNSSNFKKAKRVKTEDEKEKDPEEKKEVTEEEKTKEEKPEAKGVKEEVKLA

As for `CC(C(=O)Nc1ccc(C(=O)Nc2ccccc2N)cc1)N1CCCC1` (centres unmarked) [Example 1, N-(2-Amino-phenyl)-4-(2-pyrrolidin-1-yl-propionylamino)-benzamide], the IC50 against HDAC-1 was 0.201 µM.
As to `CC(C(=O)Nc1ccc(C(=O)Nc2cc(-c3ccc(F)cc3)ccc2N)cc1)N1CCCC1` (centres unmarked) [Example 2, N-(2-Amino-5-(4-fluorophenyl)phenyl)-4-(2-(pyrrolidin-1-yl)propanamido)benzamide], the IC50 on HDAC-3 was 3.11 µM; on HDAC-1, 0.003 µM.
As for `CC(C(=O)Nc1ccc(C(=O)Nc2cc(-c3cccs3)ccc2N)cc1)N1CCCC1` (centres unmarked) [Example 3, N-(2-Amino-5-(thiophen-2-yl)phenyl)-4-(2-(pyrrolidin-1-yl)propanamido)benzamide], the values for the IC50 against HDAC-3 and against HDAC-1 were 2.1 µM and 0.003 µM, respectively.
Regarding `CC(C(=O)Nc1ccc(C(=O)Nc2ccccc2N)cc1)N1CCCC1=O` (centres unmarked) [Example 4, N-(2-Aminophenyl)-4-(2-(2-oxopyrrolidin-1-yl)propanamido)benzamide], the IC50 at HDAC-3 amounted to 0.3 µM; against HDAC-1, 0.0915 µM.
Consider `CC(C(=O)Nc1ccc(C(=O)Nc2cc(-c3cccs3)ccc2N)cc1)N1CCCC1=O` (centres unmarked) [Example 5, N-(2-Amino-5-(thiophen-2-yl)phenyl)-4-(2-(2-oxopyrrolidin-1-yl)propanamido)benzamide], for which the IC50 against HDAC-3 was found to be 1.04 µM; on HDAC-1 it was 0.0016 µM.
On to `Nc1ccccc1NC(=O)c1ccc(NC(=O)C(c2ccccc2)N2CCOCC2)cc1` (centres unmarked) [Example 6, N-(2-aminophenyl)-4-(2-morpholino-2-phenylacetamido)benzamide], for which the IC50 on HDAC-3 was determined as 0.144 µM; on HDAC-1, 0.0253 µM.
Regarding `CC(C(=O)Nc1ccc(C(=O)Nc2cc(-c3ccc(F)cc3)ccc2N)cc1)N1CCCC1=O` (centres unmarked) [Example 7, N-(2-Amino-5-(4-fluorophenyl)phenyl)-4-(2-(2-oxopyrrolidin-1-yl)propanamido)benzamide], the IC50 against HDAC-3 amounted to 1.54 µM; on HDAC-1, 0.0027 µM.
With `CC(C(=O)Nc1ccc(C(=O)Nc2cc(-c3cccs3)ccc2N)cc1)N1CCOCC1` (centres unmarked) [Example 8, N-(2-Amino-5-(thiophen-2-yl)phenyl)-4-(2-morpholinopropanamido)benzamide], the IC50 against HDAC-3 was determined as 1.35 µM; on HDAC-1, 0.0028 µM.
On to `CC(C(=O)Nc1ccc(C(=O)Nc2cc(-c3ccc(F)cc3)ccc2N)cc1)N1CCOCC1` (centres unmarked) [Example 9], for which the IC50 against HDAC-3 was determined as 3.06 µM; on HDAC-1, 0.0047 µM.
For the compound `CC(C)(C(=O)Nc1ccc(C(=O)Nc2cc(-c3ccc(F)cc3)ccc2N)cc1)N1CCOCC1` [Example 10, N-(2-Amino-5-(4-fluorophenyl)phenyl)-4-(2-methyl-2-morpholinopropanamido)benzamide], the IC50 on HDAC-3 was 3.63 µM; at HDAC-1, 0.0041 µM.
Regarding `CC(C(=O)Nc1ccc(C(=O)Nc2cc(-c3cccs3)ccc2N)cc1F)N1CCCC1=O` (centres unmarked) [Example 11, N-(2-Amino-5-(thiophen-2-yl)phenyl)-3-fluoro-4-(2-(2-oxopyrrolidin-1-yl)propanamido)benzamide], the IC50 is 1.04 µM on HDAC-3 and 0.0019 µM at HDAC-1.
Take `CC(C(=O)Nc1ccc(C(=O)Nc2cc(-c3ccc(Cl)s3)ccc2N)cc1)N1CCCC1=O` (centres unmarked) [Example 12, N-(2-Amino-5-(5-chlorothiophen-2-yl)phenyl)-4-(2-(2-oxopyrrolidin-1-yl)propanamido)benzamide]: the IC50 was 2.23 µM at HDAC-3 and 0.0071 µM at HDAC-1.

By IC50 is commonly meant the concentration that gives 50% inhibition. Low readings indicate greater potency, high ones weaker potency.
